From patent US11578055B2, “Triazacyclododecansulfonamide (“TCD”)-based protein secretion inhibitors” (KEZAR LIFE SCIENCES, priority 2018, dated 2023)
Where a name gives a salt, the structure may show the parent alone.

Assays:
[1] = In Vitro Microsome Stability Assay (mouse); assay type: in vitro ADME; conditions: mouse, 30 min, NADPH
How it was run: (§1)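 Species liver microsomes in potassium phosphate buffer were preincubated at 37 °C for 3–5 min with test compound (added from 0.25 mM DMSO stock), then started with NADPH. Samples at 0 and 30 min were quenched with acetonitrile containing internal standard and analysed by LC-MS/MS; % remaining at 30 min used analyte/IS AUC ratios relative to t=0.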

[2] = In Vitro Microsome Stability Assay (monkey); assay type: in vitro ADME; conditions: monkey, 30 min, NADPH
How it was run: as §1

[3] = test system: PD1 signal sequence plus 10 amino acids fused to Gaussia Luciferase (PD1-ss+10aa/Gaussia Luciferase); assay: Dox Induced PD1-ss-Gluc Assay; assay type: cell-based; conditions: 24 hr, 293FRT/TO; read-out: 24 hr Dox Inducible PD1ssGluc 293FRT/TO: Mean IC50
How it was run: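 Stable Flp-In 293 T-REx line expressing the fusion under tetracycline-inducible control, plated the day before assay. Compound dilutions added with doxycycline and incubated at 37 °C, 5% CO2; unspecified stereocentres mean data refer to stereoisomer mixtures.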

[4] = test system: full length TNFα (amino acids 1-233) fused to Gaussia Luciferase; assay: Dox Induced TNFα-FL-Gluc Assay; assay type: cell-based; conditions: 24 hr, 293FRT/TO; read-out: 24 hr Dox Inducible TNFaFLGluc 293FRT/TO: Mean IC50
How it was run: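 Stable Flp-In 293 T-REx line expressing doxycycline-inducible full-length TNFα fused to Gaussia luciferase; cells plated the day before, then treated with compound dilutions in doxycycline-containing medium at 37° C, 5% CO2. Unspecified stereocentres mean stereoisomer mixtures were tested.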

[5] = test system: multiple myeloma cell line U266B1; assay: U266 Cell Viability Assay; assay type: cell-based, human; conditions: Homo sapiens, U-266; 48 hr, U266; read-out: 48 hr U266 Viability Celltiter-Glo: Mean EC50
How it was run: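 U266B1 myeloma cells in RPMI 1640 with 10% FBS were treated with compound dilutions for 48 h at 37° C, 5% CO2. Viability was read as CellTiter-Glo luminescence. Data for structures drawn without stereochemistry refer to stereoisomer mixtures.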

[6] = In Vitro Microsome Stability Assay (human); assay type: in vitro ADME; conditions: human, 30 min, NADPH
How it was run: as §1

[7] = test system: multiple myeloma cell line NCl-H929; assay: H929 Cell Viability Assay; assay type: cell-based, human; conditions: Homo sapiens, NCI-H929, 48 h, H929, read-out: 48 hr H929 Viability Celltiter-Glo: Mean EC50
How it was run: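 NCI-H929 myeloma cells in RPMI 1640 with 10% FBS were treated with compound dilutions for 48 h at 37 °C, and viability was then read by CellTiter-Glo luminescence. Compounds drawn without stereochemistry were tested as stereoisomer mixtures.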

[8] = In Vitro Microsome Stability Assay (rat); assay type: in vitro ADME; conditions: rat, 30 min, NADPH
How it was run: as §1

SMILES | Liver Microsome Stability-% Left after 30 min w/ NADPH (%) Mouse [1] [%] | Liver Microsome Stability-% Left after 30 min w/ NADPH (%) Monkey [2] [%] | IC50 [3] [nM] | IC50 [4] [nM] | EC50 [5] [nM] | Liver Microsome Stability-% Left after 30 min w/ NADPH (%) Human [6] [%] | EC50 [7] [nM] | Liver Microsome Stability-% Left after 30 min w/ NADPH (%) Rat [8] [%]
COc1cccc(S(=O)(=O)N2CCCN(CC3CCCCC3)CCCN(S(=O)(=O)N3CCCCC3)CC3(CC3)C2)c1 [A32, 9-(cyclohexylmethyl)-5-(3-methoxybenzenesulfonyl)-13-(piperidine-1-sulfonyl)-5,9,13-triazaspiro[2.11]tetradecane] | 0.51 | 0.09 | > 25000 | > 25000 | > 25000 | 0.06 | > 25000 | 0.27
CN(C)c1ccc(S(=O)(=O)N2CCCN(CC3CCCCC3)CCCN(S(=O)(=O)N3CCCC3)CC3(CC3)C2)cc1 [A23, 4-{[9-(cyclohexylmethyl)-13-(pyrrolidine-1-sulfonyl)-5,9,13-triazaspiro[2.11]tetradecan-5-yl]sulfonyl}-N,N-dimethylaniline] | 0.17 | 0.03 | 759 | > 25000 | > 25000 | 0.04 | > 25000 | 0.13
C=C1CN(S(=O)(=O)c2ccc(N(C)C)cc2)CCCN(CC2CCCCC2)CCCN(S(=O)(=O)N2CCC(c3cccc(Cl)c3)CC2)C1 [A58, 4-[(5-{[4-(3-chlorophenyl)piperidin-1-yl]sulfonyl}-9-(cyclohexylmethyl)-3-methylidene-1,5,9-triazacyclododecan-1-yl)sulfonyl]-N,N-dimethylaniline] | 72.8 | 53.1 | 72.1 | 8500 | > 25000 | 31.6 | > 25000 | 66.7
O=S(=O)(c1ccccc1)N1CCCN(CC2CCCCC2)CCCN(S(=O)(=O)N2CCCCC2)CC2(CC2)C1 [A34, 5-(benzenesulfonyl)-9-(cyclohexylmethyl)-13-(piperidine-1-sulfonyl)-5,9,13-triazaspiro[2.11]tetradecane] | 0.24 | 0.09 | > 25000 | > 25000 | > 25000 | 0.03 | > 25000 | 0.12
C=C1CN(S(=O)(=O)c2ccc(C)cc2)CCCN(C(=O)OCCC)CCCN(S(=O)(=O)c2ccc(N(C)C)cc2)C1 [A12, propyl 5-((4-(dimethylamino)phenyl)sulfonyl)-7-methylene-9-tosyl-1,5,9-triazacyclododecane-1-carboxylate] | 0.1 | 0.22 | 858 | > 25000 | > 25000 | 0.11 | > 25000 | 0.07
C=C1CN(S(=O)(=O)CC)CCCN(CC2CCCCC2)CCCN(S(=O)(=O)c2ccc(C)cc2)C1 [A6, 9-(cyclohexylmethyl)-1-(ethanesulfonyl)-5-(4-methylbenzenesulfonyl)-3-methylidene-1,5,9-triazacyclododecane] | 0.12 | 0.44 | 4750 | > 25000 | > 25000 | 0.53 | 24100 | 0.17
C=C1CN(S(=O)(=O)c2ccc(N(C)C)cc2)CCCN(CC2CCCCC2)CCCN(S(=O)(=O)N2CCc3c(Cl)cccc3C2)C1 [A54, 4-({5-[(5-chloro-1,2,3,4-tetrahydroisoquinolin-2-yl)sulfonyl]-9-(cyclohexylmethyl)-3-methylidene-1,5,9-triazacyclododecan-1-yl}sulfonyl)-N,N-dimethylaniline] | 34.6 | 30.5 | 26.5 | 952 | > 25000 | 33.8 | 1910 | 42.4
C=C1CN(S(=O)(=O)c2ccc(N(C)C)cc2)CCCN(CC2CCCCC2)CCCN(S(=O)(=O)N2CCN(c3ccccc3)[C@@H](C)C2)C1 [A47, 4-{[9-(cyclohexylmethyl)-5-{[(3S)-3-methyl-4-phenylpiperazin-1-yl]sulfonyl}-3-methylidene-1,5,9-triazacyclododecan-1-yl]sulfonyl}-N,N-dimethylaniline] | 5.68 | 1.68 | 259 | > 25000 | > 25000 | 12.6 | > 25000 | 10.7
C=C1CN(S(=O)(=O)c2ccc(N(C)C)cc2F)CCCN(CC2CCCCC2)CCCN(S(=O)(=O)N2CCc3cc(Cl)ccc3C2)C1 [A56, 4-({5-[(6-chloro-1,2,3,4-tetrahydroisoquinolin-2-yl)sulfonyl]-9-(cyclohexylmethyl)-3-methylidene-1,5,9-triazacyclododecan-1-yl}sulfonyl)-3-fluoro-N,N-dimethylaniline] | 53.2 | 42.6 | 32.8 | 1260 | > 25000 | 44.5 | 1630 | 57.3
C=C1CN(S(=O)(=O)c2ccc(N(C)C)cc2)CCCN(CC2CCCCC2)CCCN(S(=O)(=O)N2CCc3cc(F)ccc3C2)C1 [A59, 4-{[9-(cyclohexylmethyl)-5-[(6-fluoro-1,2,3,4-tetrahydroisoquinolin-2-yl)sulfonyl]-3-methylidene-1,5,9-triazacyclododecan-1-yl]sulfonyl}-N,N-dimethylaniline] | 3.73 | 1.94 | 24.2 | 616 | > 25000 | 1.89 | 1440 | 3.9
C=C1CN(S(=O)(=O)c2ccc(C)cc2)CCCN(CC2CCC(C)(C)CC2)CCCN(S(=O)(=O)c2ccc(N(C)C)cc2)C1 [A10, 4-((9-((4,4-dimethylcyclohexyl)methyl)-3-methylene-5-tosyl-1,5,9-triazacyclododecan-1-yl)sulfonyl)-N,N-dimethylaniline hydrochloride] | 0.2 | 0.14 | 123 | 4690 | > 25000 | 0.77 | 2860 | 8.85
C=C1CN(S(=O)(=O)c2ccc(N(C)C)cc2)CCCN(CC2CCCCC2)CCCN(S(=O)(=O)N2CCc3nc(Cl)ccc3C2)C1 [A82, 4-({5-[(2-chloro-5,6,7,8-tetrahydro-1,6-naphthyridin-6-yl)sulfonyl]-9-(cyclohexylmethyl)-3-methylidene-1,5,9-triazacyclododecan-1-yl}sulfonyl)-N,N-dimethylaniline] | 0.08 | 0.23 | 30.5 | 1550 | > 25000 | 0.3 | 2300 | 0.16
